The values that follow come from PubChem BioAssay AID288 (DTP/NCI, 2004).

The subject of the assay is BDF1 mice, M5076 sarcoma s.c., survival/tumor T/C. In words: NCI In Vivo Anticancer Drug Screen. Data for tumor model Sarcoma M5076 (subcutaneous) in B6D2F1 (BDF1) mice. How it is done:
The antitumor activity of compounds was measured in mice bearing transplantable tumors. Survival or tumor size were measured and the results are expressed as the measurement made in the treated group (T) divided by the measurement made in the vehicle treated control group (C). The tumor model used in this assay is Sarcoma M5076 (subcutaneous) in B6D2F1 (BDF1) mice

[1] abbreviates: endpoint: median survival time, dose: 50.0 mg/kg/injection, schedule: Q01DX009 (ip), vehicle: saline with Tween-80, higher = longer survival.
Where [2] appears, read: endpoint: median survival time, dose: 100.0 mg/kg/injection, schedule: Q01DX009 (ip), vehicle: saline with Tween-80, higher = longer survival.
Where [3] appears, read: endpoint: median survival time, dose: 200.0 mg/kg/injection, schedule: Q01DX009 (ip), vehicle: saline with Tween-80, higher = longer survival.
The mark [4] stands for this setting: endpoint: median survival time, dose: 50.0 mg/kg/injection, schedule: Q01DX009 (ip), vehicle: saline, higher = longer survival.
Setting [5] is: endpoint: median tumor weight (est.), dose: 50.0 mg/kg/injection, schedule: Q01DX009 (ip), vehicle: saline with Tween-80, higher = larger tumour.
Where [6] appears, read: endpoint: median tumor weight (est.), dose: 200.0 mg/kg/injection, schedule: Q01DX009 (ip), vehicle: saline with Tween-80, higher = larger tumour.
[7] abbreviates: endpoint: median tumor weight (est.), dose: 100.0 mg/kg/injection, schedule: Q01DX009 (ip), vehicle: saline with Tween-80, higher = larger tumour.

The structures appear in SMILES notation. Several values for one entry are separate records, joined by “and”; a condition that tells them apart may be missing. Equal entries are not always repeated. Inconclusive results are not listed.

For `COC(=O)C[C@](O)(CCCC(C)(C)O)C(=O)O[C@@H]1C(OC)=C[C@]23CCCN2CCc2cc4c(cc2[C@H]13)OCO4`, the T/C is 114 % of control (endpoint: mean tumor weight, dose: 0.5 mg/kg/injection, schedule: Q02DX011 (ip), vehicle: saline, higher = larger tumour); 37 % of control (endpoint: mean tumor weight, dose: 2.0 mg/kg/injection, schedule: Q02DX011 (ip), vehicle: saline, higher = larger tumour); 77 % of control (endpoint: median tumor weight (est.), dose: 0.5 mg/kg/injection, schedule: Q02DX011 (ip), vehicle: saline, higher = larger tumour); 34 % of control (endpoint: median tumor weight (est.), dose: 2.0 mg/kg/injection, schedule: Q02DX011 (ip), vehicle: saline, higher = larger tumour).

Consider `Cc1ccc(SC(F)(F)C(F)C(F)(F)F)cc1` (stereo not drawn), for which the T/C reads like this: under setting [1], 98 % of control; under setting [2], 112 % of control; under setting [3], 100 % of control.

Consider `Nc1nc([Se])c2ncn(C3OC(CO)C(O)C3O)c2n1` (stereo not drawn), for which the T/C by setting is: (endpoint: median survival time, dose: 4.0 mg/kg/injection, schedule: Q01DX009 (ip), vehicle: saline, higher = longer survival) 108 % of control; (endpoint: median survival time, dose: 8.0 mg/kg/injection, schedule: Q01DX009 (ip), vehicle: saline, higher = longer survival) 118 % of control; (endpoint: median survival time, dose: 8.0 mg/kg/injection, schedule: Q01DX009 (ip), vehicle: suspension in saline, higher = longer survival) 118 % of control; (endpoint: median survival time, dose: 16.0 mg/kg/injection, schedule: Q01DX009 (ip), vehicle: saline, higher = longer survival) 119 % of control; (endpoint: median survival time, dose: 16.0 mg/kg/injection, schedule: Q01DX009 (ip), vehicle: suspension in saline, higher = longer survival) 119 % of control; (endpoint: median tumor weight (est.), dose: 4.0 mg/kg/injection, schedule: Q01DX009 (ip), vehicle: saline, higher = larger tumour) 64 % of control. In addition, the T/C reads like this: (endpoint: median tumor weight (est.), dose: 8.0 mg/kg/injection, schedule: Q01DX009 (ip), vehicle: saline, higher = larger tumour) 33 % of control; (endpoint: median tumor weight (est.), dose: 8.0 mg/kg/injection, schedule: Q01DX009 (ip), vehicle: suspension in saline, higher = larger tumour) 24 % of control; (endpoint: median tumor weight (est.), dose: 16.0 mg/kg/injection, schedule: Q01DX009 (ip), vehicle: saline, higher = larger tumour) 8 % of control; (endpoint: median tumor weight (est.), dose: 16.0 mg/kg/injection, schedule: Q01DX009 (ip), vehicle: suspension in saline, higher = larger tumour) 6 % of control.

Consider `Nc1nncs1`, for which the T/C by setting is: (endpoint: mean tumor weight, dose: 18.8 mg/kg/injection, schedule: Q02DX011 (ip), vehicle: saline, higher = larger tumour) 43 % of control; (endpoint: mean tumor weight, dose: 37.5 mg/kg/injection, schedule: Q02DX011 (ip), vehicle: saline, higher = larger tumour) 3 % of control; (endpoint: median survival time, dose: 6.25 mg/kg/injection, schedule: Q01DX009 (ip), vehicle: saline, higher = longer survival) 103 % of control; (endpoint: median survival time, dose: 12.5 mg/kg/injection, schedule: Q01DX009 (ip), vehicle: saline, higher = longer survival) 111 % of control; (endpoint: median survival time, dose: 25.0 mg/kg/injection, schedule: Q01DX009 (ip), vehicle: saline, higher = longer survival) 121 % of control; under setting [4], 122 % of control. Moreover, the T/C by setting is: (endpoint: median tumor weight (est.), dose: 6.25 mg/kg/injection, schedule: Q01DX009 (ip), vehicle: saline, higher = larger tumour) 75 % of control; (endpoint: median tumor weight (est.), dose: 12.5 mg/kg/injection, schedule: Q01DX009 (ip), vehicle: saline, higher = larger tumour) 53 % of control; (endpoint: median tumor weight (est.), dose: 18.8 mg/kg/injection, schedule: Q02DX011 (ip), vehicle: saline, higher = larger tumour) 47 % of control; (endpoint: median tumor weight (est.), dose: 25.0 mg/kg/injection, schedule: Q01DX009 (ip), vehicle: saline, higher = larger tumour) 22 % of control.

On to `Nc1ccc(N2N=C(N3CCCC3)CC2=O)cc1`, for which the T/C reads like this: under setting [1], 100 % of control; under setting [2], 99 % of control; under setting [3], 94 % of control; under setting [5], 112 % of control; under setting [6], 80 % of control.

For `CCCCCCCCCCCCCCCc1ccc(O)cc1O`, the T/C by setting is: (endpoint: median survival time, dose: 25.0 mg/kg/injection, schedule: Q02DX030 (ip), vehicle: saline with Tween-80, higher = longer survival) 119 % of control; (endpoint: median survival time, dose: 50.0 mg/kg/injection, schedule: Q02DX030 (ip), vehicle: saline with Tween-80, higher = longer survival) 111 % of control.

In the case of `COc1ccc(/C=N/NC(=O)C(=O)Nc2ccc(Cl)c([N+](=O)[O-])c2)cc1OC`, the T/C by setting is: under setting [1], 97 % of control; under setting [2], 88 % of control; under setting [3], 97 % of control; under setting [5], 96 % of control; under setting [7], 90 % of control; under setting [6], 86 % of control.

As to `COc1cc(-c2ccc(NC(=O)NC3CC3)c(OC)c2)ccc1NC(=O)NC1CC1`, the T/C under setting [1] was 101 % of control; the T/C under setting [2] is 93 % of control; the T/C under setting [3] was 88 % of control; the T/C under setting [5] is 101 % of control; the T/C under setting [7] is 84 % of control.

For the molecule `CC(C)CC(NC(=O)C(N)C(C)C)C(=O)NC(CCCCN)C(=O)NC(C(=O)O)C1CC(Cl)=NO1` (stereo not drawn), the T/C by setting is: (endpoint: median survival time, dose: 1.6 mg/kg/injection, schedule: Q01DX010 (ip), vehicle: saline, higher = longer survival) 103 % of control and 106 % of control; (endpoint: median survival time, dose: 25.6 mg/kg/injection, schedule: Q01DX010 (ip), vehicle: saline, higher = longer survival) 173 % of control; (endpoint: median survival time, dose: 51.2 mg/kg/injection, schedule: Q01DX010 (ip), vehicle: saline, higher = longer survival) 166 % of control.

In the case of `NCCNCC(O)CO` (stereo not drawn), the T/C by setting is: under setting [4], 90 % of control; (endpoint: median survival time, dose: 100.0 mg/kg/injection, schedule: Q01DX009 (ip), vehicle: saline, higher = longer survival) 112 % of control; (endpoint: median survival time, dose: 200.0 mg/kg/injection, schedule: Q01DX009 (ip), vehicle: saline, higher = longer survival) 105 % of control; (endpoint: median tumor weight (est.), dose: 100.0 mg/kg/injection, schedule: Q01DX009 (ip), vehicle: saline, higher = larger tumour) 76 % of control; (endpoint: median tumor weight (est.), dose: 200.0 mg/kg/injection, schedule: Q01DX009 (ip), vehicle: saline, higher = larger tumour) 115 % of control.

`N[C@@H](Cc1ccc(N(CCCl)CCCl)cc1)C(=O)O`: the T/C (endpoint: median survival time, dose: 0.75 mg/kg/injection, schedule: Q04DX006 (ip), vehicle: saline, higher = longer survival) is 105 % of control; the T/C (endpoint: median survival time, dose: 1.5 mg/kg/injection, schedule: Q04DX006 (ip), vehicle: saline, higher = longer survival) is 111 % of control; the T/C (endpoint: median survival time, dose: 3.0 mg/kg/injection, schedule: Q02DX033 (ip), vehicle: saline, higher = longer survival) was 230 % of control; the T/C (endpoint: median survival time, dose: 3.0 mg/kg/injection, schedule: Q04DX006 (ip), vehicle: saline, higher = longer survival) is 121 % of control; the T/C (endpoint: median survival time, dose: 3.24 mg/kg/injection, schedule: Q01DX001 (ip), vehicle: saline, higher = longer survival) is 154 % of control and 155 % of control.

Regarding `c1cc2n(n1)CCN2`, the T/C reads like this: (endpoint: mean tumor weight, dose: 6.25 mg/kg/injection, schedule: Q02DX011 (ip), vehicle: saline, higher = larger tumour) 122 % of control; (endpoint: mean tumor weight, dose: 12.5 mg/kg/injection, schedule: Q02DX011 (ip), vehicle: saline, higher = larger tumour) 85 % of control; (endpoint: mean tumor weight, dose: 25.0 mg/kg/injection, schedule: Q02DX011 (ip), vehicle: saline, higher = larger tumour) 103 % of control; (endpoint: median tumor weight (est.), dose: 6.25 mg/kg/injection, schedule: Q02DX011 (ip), vehicle: saline, higher = larger tumour) 161 % of control.

With `Nc1nc(=S)c2[nH]cnc2[nH]1`, the T/C was 58 % of control (endpoint: mean tumor weight, dose: 0.5 mg/kg/injection, schedule: Q02DX011 (ip), vehicle: Klucel (hydroxypropylcellulose) (HPC), higher = larger tumour); 16 % of control (endpoint: mean tumor weight, dose: 1.0 mg/kg/injection, schedule: Q02DX011 (ip), vehicle: Klucel (hydroxypropylcellulose) (HPC), higher = larger tumour); 3 % of control (endpoint: mean tumor weight, dose: 2.0 mg/kg/injection, schedule: Q02DX011 (ip), vehicle: Klucel (hydroxypropylcellulose) (HPC), higher = larger tumour).

Consider `CNC(=O)c1ccccc1C1(O)c2ccccc2CCc2ccccc21`, for which the T/C is 109 % of control under setting [1] and 100 % of control under setting [3].

As to `CC(=O)[C@H]1CC[C@H]2[C@@H]3C[C@H](C)C4=CC(=O)CC[C@]4(C)[C@H]3C(=O)C[C@]12C`, the T/C by setting is: (endpoint: mean tumor weight, dose: 100.0 mg/kg/injection, schedule: Q02DX011 (ip), vehicle: Klucel (hydroxypropylcellulose) (HPC), higher = larger tumour) 51 % of control; (endpoint: mean tumor weight, dose: 200.0 mg/kg/injection, schedule: Q02DX011 (ip), vehicle: Klucel (hydroxypropylcellulose) (HPC), higher = larger tumour) 74 % of control.

With `OCCNCCN=C1CCC(=NCCNCCO)CC1`, the T/C under setting [1] is 100 % of control, the T/C under setting [2] was 100 % of control, the T/C under setting [5] was 105 % of control and the T/C under setting [7] was 112 % of control.
